Assay: xn = mol fraction of the nth substance listed
Conditions: Liquid, Vibrating tube method

CCCCCCC [heptane] + O=C=O
Conditions	mass density [kg/m3]
322.91 K, 22022 kPa, x2 = 0.7514	759.49
322.91 K, 23010 kPa, x2 = 0.7514	762.14
322.91 K, 23983 kPa, x2 = 0.7514	764.78
322.91 K, 24907 kPa, x2 = 0.7514	767.21
322.94 K, 3016 kPa, x2 = 0.0218	663.11
322.94 K, 4008 kPa, x2 = 0.0218	664.28
322.94 K, 5006 kPa, x2 = 0.0218	665.41
322.94 K, 5006 kPa, x2 = 0.5085	691.2
322.94 K, 6002 kPa, x2 = 0.0218	666.44
322.94 K, 6004 kPa, x2 = 0.5085	693.82
322.94 K, 7003 kPa, x2 = 0.0218	667.61
322.94 K, 7005 kPa, x2 = 0.5085	696.6
322.94 K, 8006 kPa, x2 = 0.0218	668.67
322.94 K, 8009 kPa, x2 = 0.5085	698.81
322.94 K, 8995 kPa, x2 = 0.0218	669.76
322.94 K, 9010 kPa, x2 = 0.5085	701.04
322.94 K, 10002 kPa, x2 = 0.0218	670.79
322.94 K, 10006 kPa, x2 = 0.5085	703.24
322.94 K, 10997 kPa, x2 = 0.5085	705.29
322.94 K, 11002 kPa, x2 = 0.0218	671.78
322.94 K, 11999 kPa, x2 = 0.0218	672.82
322.94 K, 12001 kPa, x2 = 0.5085	707.34
322.94 K, 12998 kPa, x2 = 0.5085	709.37
322.94 K, 13000 kPa, x2 = 0.0218	673.79
322.94 K, 14001 kPa, x2 = 0.0218	674.79
322.94 K, 14004 kPa, x2 = 0.5085	711.26
322.94 K, 15002 kPa, x2 = 0.0218	675.77
322.94 K, 15009 kPa, x2 = 0.5085	713.17
322.94 K, 15998 kPa, x2 = 0.0218	676.69
322.94 K, 16004 kPa, x2 = 0.5085	715.02
322.94 K, 17002 kPa, x2 = 0.0218	677.65
322.94 K, 17009 kPa, x2 = 0.5085	716.84
322.94 K, 18003 kPa, x2 = 0.0218	678.53
322.94 K, 18003 kPa, x2 = 0.5085	718.61
322.94 K, 18995 kPa, x2 = 0.0218	679.45
322.94 K, 19009 kPa, x2 = 0.5085	720.34
322.94 K, 20004 kPa, x2 = 0.5085	722.03
322.94 K, 20009 kPa, x2 = 0.0218	680.41
322.94 K, 20999 kPa, x2 = 0.0218	681.28
322.94 K, 21007 kPa, x2 = 0.5085	723.66
322.94 K, 21995 kPa, x2 = 0.5085	725.31
322.94 K, 22005 kPa, x2 = 0.0218	682.14
322.94 K, 23002 kPa, x2 = 0.5085	726.96
322.94 K, 23011 kPa, x2 = 0.0218	683.03
322.94 K, 24002 kPa, x2 = 0.5085	728.57
322.94 K, 24009 kPa, x2 = 0.0218	683.94
322.94 K, 24961 kPa, x2 = 0.0218	684.87
322.94 K, 25011 kPa, x2 = 0.5085	730.19
322.96 K, 12028 kPa, x2 = 0.9496	666.43
322.96 K, 13010 kPa, x2 = 0.9496	691.64
322.96 K, 13994 kPa, x2 = 0.9496	711.79
322.96 K, 14997 kPa, x2 = 0.9496	728.42
322.96 K, 16006 kPa, x2 = 0.9496	742.98
322.96 K, 17008 kPa, x2 = 0.9496	755.69
322.96 K, 17999 kPa, x2 = 0.9496	766.84
322.96 K, 19001 kPa, x2 = 0.9496	777.08
322.96 K, 20001 kPa, x2 = 0.9496	786.26
322.96 K, 20994 kPa, x2 = 0.9496	794.84
322.96 K, 21997 kPa, x2 = 0.9496	802.85
322.96 K, 23019 kPa, x2 = 0.9496	810.46
322.96 K, 23997 kPa, x2 = 0.9496	817.33
322.96 K, 24395 kPa, x2 = 0.9496	820.02
332.7 K, 12055 kPa, x2 = 0.9496	554.72
332.7 K, 13001 kPa, x2 = 0.9496	599.39
332.7 K, 14003 kPa, x2 = 0.9496	633.33
332.7 K, 14995 kPa, x2 = 0.9496	659.11
332.7 K, 16003 kPa, x2 = 0.9496	680.52
332.7 K, 16980 kPa, x2 = 0.9496	697.86
332.7 K, 18002 kPa, x2 = 0.9496	713.39
332.7 K, 19004 kPa, x2 = 0.9496	727.03
332.7 K, 19979 kPa, x2 = 0.9496	738.9
332.7 K, 20995 kPa, x2 = 0.9496	749.98
332.7 K, 22006 kPa, x2 = 0.9496	760
332.7 K, 23011 kPa, x2 = 0.9496	769.32
332.7 K, 24046 kPa, x2 = 0.9496	778.17
332.7 K, 24505 kPa, x2 = 0.9496	781.98
332.72 K, 5013 kPa, x2 = 0.3148	672.27
332.72 K, 6004 kPa, x2 = 0.3148	673.82
332.72 K, 7000 kPa, x2 = 0.3148	675.27
332.72 K, 8008 kPa, x2 = 0.3148	676.79
332.72 K, 9003 kPa, x2 = 0.3148	678.48
332.72 K, 10007 kPa, x2 = 0.3148	680.17
332.72 K, 11008 kPa, x2 = 0.3148	681.84
332.72 K, 11995 kPa, x2 = 0.3148	683.4
332.72 K, 12994 kPa, x2 = 0.3148	684.97
332.72 K, 14002 kPa, x2 = 0.3148	686.5
332.72 K, 15009 kPa, x2 = 0.3148	688.01
332.72 K, 16005 kPa, x2 = 0.3148	689.47
332.72 K, 16994 kPa, x2 = 0.3148	690.88
332.72 K, 17996 kPa, x2 = 0.3148	692.28
332.72 K, 19002 kPa, x2 = 0.3148	693.66
332.72 K, 20001 kPa, x2 = 0.3148	695.02
332.72 K, 21004 kPa, x2 = 0.3148	696.34
332.72 K, 22014 kPa, x2 = 0.3148	697.64
332.72 K, 22998 kPa, x2 = 0.3148	698.95
332.72 K, 24000 kPa, x2 = 0.3148	700.22
332.72 K, 25010 kPa, x2 = 0.3148	701.53
332.73 K, 9976 kPa, x2 = 0.7514	687.42
332.73 K, 11027 kPa, x2 = 0.7514	694.77
332.73 K, 12005 kPa, x2 = 0.7514	701.07
332.73 K, 13004 kPa, x2 = 0.7514	706.72
332.73 K, 14002 kPa, x2 = 0.7514	712.07
332.73 K, 15007 kPa, x2 = 0.7514	716.96
332.73 K, 16008 kPa, x2 = 0.7514	721.73
332.73 K, 17006 kPa, x2 = 0.7514	726.16
332.73 K, 17992 kPa, x2 = 0.7514	730.25
332.73 K, 19005 kPa, x2 = 0.7514	734.18
332.73 K, 19992 kPa, x2 = 0.7514	737.97
332.73 K, 21048 kPa, x2 = 0.7514	741.67
332.73 K, 21991 kPa, x2 = 0.7514	745.02
332.73 K, 22997 kPa, x2 = 0.7514	748.43
332.73 K, 23997 kPa, x2 = 0.7514	751.86
332.73 K, 24860 kPa, x2 = 0.7514	754.69
332.8 K, 3011 kPa, x2 = 0.0218	654.41
332.8 K, 4004 kPa, x2 = 0.0218	655.67
332.8 K, 5003 kPa, x2 = 0.0218	656.85
332.8 K, 6000 kPa, x2 = 0.0218	658.03
332.8 K, 7004 kPa, x2 = 0.0218	659.2
332.8 K, 8007 kPa, x2 = 0.0218	660.37
332.8 K, 9001 kPa, x2 = 0.0218	661.51
332.8 K, 10004 kPa, x2 = 0.0218	662.62
332.8 K, 10998 kPa, x2 = 0.0218	663.71
332.8 K, 12002 kPa, x2 = 0.0218	664.82
332.8 K, 12996 kPa, x2 = 0.0218	665.83
332.8 K, 13999 kPa, x2 = 0.0218	666.94
332.8 K, 15004 kPa, x2 = 0.0218	667.94
332.8 K, 16005 kPa, x2 = 0.0218	668.95
332.8 K, 16998 kPa, x2 = 0.0218	669.95
332.8 K, 18005 kPa, x2 = 0.0218	670.91
332.8 K, 19003 kPa, x2 = 0.0218	671.91
332.8 K, 20002 kPa, x2 = 0.0218	672.83
332.8 K, 21008 kPa, x2 = 0.0218	673.8
332.8 K, 21997 kPa, x2 = 0.0218	674.76
332.8 K, 22998 kPa, x2 = 0.0218	675.69
332.8 K, 24009 kPa, x2 = 0.0218	676.63
